Values of other authors, collected in US4086220A, “Fragments of secretin” (G. D. Searle & Co., priority 1976, dated 1978).

Details: on a molar basis; parent molecule = intact secretin

Amino acid fragments of the molecule from position 1 to 14: Secretin fragment, positions 1 to 14 (containing the helical portion), reported in literature (Rayford et al.) (HSDGTFTSELSRLR; Secretin; UniProt P09683 28-41, looked up, fragment)
lipolytic activity relative to that of the parent molecule: about 0.5%
